Measurements reported in patent US20240189285A1, “COMPOSITION AND METHOD FOR ENHANCING MITOCHONDRIAL BIOGENESIS AND ACTIVATING PGC-1A” (NANJING NUTRABUILDING BIO-TECH CO., LTD., priority 2021, published 2024).

Tests used:
Type in all cases: cell-based
[1] = tested on: target cells (endothelial cells, C2C12 skeletal muscle cells, etc.); assay: Mitochondrial biogenesis in vitro: mitochondrial mass (flow cytometry, fluorescent microscopy) and mtDNA copy number (quantitative PCR)
Description: (§1) Target cells (endothelial cells, C2C12 skeletal muscle cells, etc.) are obtained according to conventional methods in the art.
The target cells (endothelial cells, C2C12 skeletal muscle cells, etc.) were divided into groups A, B, C and D. B and D group cells were cultured with 50 μM L-Ergothioneine for 12 hours. A and C groups were not cultured with Ergothioneine but only with the usual nutrient solution for 12 hours. Then a certain concentration of H2O2 was used to cause C and D group cells damage, no H2O2 was used on A and B groups. Mitochondrial biogenesis was measured by quantifying both mitochondrial mass and mitochondrial DNA (mtDNA) contents. Mitochondrial mass was measured by flow cytometry and fluorescent microscopy, mtDNA copy number was analyzed by quantitative PCR.

[2] = tested on: Sirt1; assay: Sirt1 protein level by Western blot in target cells
Description: as §1
(§2) The target cells (endothelial cells, C2C12 skeletal muscle cells, etc.) are divided into groups A, B, C and D. B and D group cells were cultured with 50 μM L-Ergothioneine for 12 hours, and A and C groups were not cultured with Ergothioneine but only with the usual nutrient solution for 12 hours. Then a certain concentration of H2O2 was used to cause C and D group cells damage, no H2O2 was used on A and B groups. Then PGC-1α protein expression and Sirt1 protein level were analyzed by Western blot.

[3] = tested on: PGC-1α; assay: PGC-1α protein expression by Western blot in target cells
Description: as §1, §2

[4] = group B: 50 μM L-Ergothioneine for 12 hours, no H2O2, untreated group A = 100

For `C[N+](C)(C)[C@@H](Cc1c[nH]c(=S)[nH]1)C(=O)[O-]` [L-Ergothioneine], the Relative mitochondrial mass [1, 4] was 112%, the “Relative mtDNA content” value [1, 4] was 118% and the Relative mitochondrial mass ([1]; group D: 50 μM L-Ergothioneine for 12 hours, then H2O2 damage, H2O2-only group C = 78) was 90%. The “Relative mtDNA content” value ([1]; group D: 50 μM L-Ergothioneine for 12 hours, then H2O2 damage, H2O2-only group C = 89) was 93%, the “Sirt1 level (Western blot)” value ([2]; group B: 50 μM L-Ergothioneine for 12 hours, no H2O2, untreated group A about 0.79) was roughly 0.85 and the “Sirt1 level (Western blot)” value ([2]; group D: 50 μM L-Ergothioneine for 12 hours, then H2O2 damage, H2O2-only group C about 0.65) was roughly 0.75. The “PGC-1α level (Western blot)” value ([3]; group B: 50 μM L-Ergothioneine for 12 hours, no H2O2, untreated group A about 0.0046) was roughly 0.005 and the “PGC-1α level (Western blot)” value ([3]; group D: 50 μM L-Ergothioneine for 12 hours, then H2O2 damage, H2O2-only group C about 0.0036) was roughly 0.0043.
